Experimental data as given in US12433865B2, “Compositions comprising PGI2-receptor agonists and processes for the preparation thereof” (Arena Pharmaceuticals, Inc., priority 2018, dated 2025).

Experiments:
[1] = Plasma half-life; assay type: in vivo
[2] = Open-label, fixed sequence single-dose pharmacokinetic study in healthy subjects (Example 7 A); assay type: in vivo, human
Protocol: A. An open-label, fixed sequence, non-randomized study in two cohorts of healthy male and non-pregnant, non-lactating female subjects was conducted. Two cohorts with twelve subjects in each were enrolled to ensure data in ten evaluable subjects per cohort.
Each subject in Cohort 1 received each of the following regimens, in the fasted state, in a sequential manner over four treatment periods: • Regimen A (0.03 mg immediate-release Compound 1): 1×0.03 mg Compound 1 immediate-release capsule. • Regimen B (0.06 mg modified-release Compound 1): 1×0.06 mg Compound 1 modified-release tablet as disclosed herein. • Regimen C (0.12 mg modified-release Compound 1): 2×0.06 mg Compound 1 modified-release tablets as disclosed herein. • Regimen D (0.18 mg modified-release Compound 1) 3×0.06 mg Compound 1 modified-release tablets as disclosed herein.
Subjects received each regimen in the morning of Day 1, following an overnight fast of a minimum of 8 hours. PK samples were taken from subjects at 72 hours post-dose. There was a minimum washout period of 7 days between each administration of investigational medicinal product (IMP) (i.e., selexipag film-coated tablet(s), Compound 1 immediate-release capsule(s), and/or Compound 1 modified-release tablet(s)).
For Cohort 1, subjects received Regimens […] in a sequential manner at consecutive treatment periods.
Venous blood samples were withdrawn at regular time intervals. Plasma concentration data for Compound 1 and the selexipag parent and active metabolite were analyzed using appropriate non-compartmental techniques to obtain estimates of one or more of the following parameters: • Tlag • Tmax • Cmax • C12 • C24 • AUC(0-last) • AUC(0-inf) • AUC % extrap • lambda-z • T1/2e1 • CL/F • Frel: relative bioavailability of 0.06 mg Compound 1 tablets compared to the reference 0.03 mg Compound 1 capsule Pharmacodynamic Assessments:
One or more of the above pharmacokinetic parameters were determined at one or more of the following time points: pre-dose and (referring to hours after administration): 0.5, 1, 1.5, 2, 3, 4, 5, 6, 8, 10, 12, 16, 20, 24, 36, 48, and 72 hours.

[3] = 0.06-0.18 mg modified-release tablets vs 0.03 mg immediate-release capsule
[4] = single oral dose, fasted healthy subjects

half-life [1]: ~24 h
dose-adjusted total exposure (AUC(0-last)) compared to 0.03 mg immediate release capsule ([2]; 0.18 mg modified-release tablet): similar
relative bioavailability based on individual dose-adjusted Cmax vs immediate-release capsule ([2]; 0.06, 0.12 and 0.18 mg modified-release tablet): statistically significantly lower
dose-adjusted peak plasma exposure (Cmax/D), geometric mean ratios modified-release vs immediate-release [2, 3]: 28.7-41.2%
dose-adjusted total plasma exposure (AUC/D), geometric mean ratios modified-release vs immediate-release [2, 3]: 63.3-97.9%
relative bioavailability based on individual dose-adjusted AUC(0-last) vs immediate-release capsule ([2]; 0.06 and 0.12 mg modified-release tablet): statistically significantly lower
half-life ([2]; both sexes, human, plasma, oral, modified-release tablets, across all dose levels (0.06, 0.12, 0.18 mg), read-out: geometric mean half-life): 19 to 23 h
Tmax ([2]; both sexes, human, plasma, single oral administration of 0.06, 0.12 and 0.18 mg modified-release tablets, read-out: median Tmax): 4 to 10 h
plasma concentrations at 24 hours post-dose compared to immediate-release formulation ([2]; modified-release tablet formulation): higher
increase of systemic exposure (Cmax and AUC) with dose ([2]; oral modified-release tablet formulation): slightly higher than dose-proportional
Cmax, modified-release tablet vs immediate-release capsule [2, 4]: reduced
Tmax, modified-release tablet vs immediate-release capsule [2, 4]: increased
total plasma concentrations, modified-release tablet vs immediate-release capsule [2, 4]: similar
Structure (SMILES): O=C(O)COC[C@H]1CC[C@H](COC(=O)N(c2ccccc2)c2ccc(Cl)cc2)CC1 [Compound 1, 2-(((1r,4r)-4-(((4-chlorophenyl)(phenyl)carbamoyloxy)methyl)cyclohexyl)methoxy)acetic acid]
